Results taken from patent publication US20260232767A1, “INTERLEUKIN-23 RECEPTOR ANTAGONIST PEPTIDES FOR USE IN THE TREATMENT OF PSORIASIS” (Janssen Pharmaceutica NV, priority 2023, published 2026).

Tested on: subjects with moderate-to-severe plaque psoriasis
Assay: Safety, adverse events, Example 2 through Week 56
Type: in vivo, human
Details: 100 mg QD
Text: The LTE safety analysis was based on randomized participants in Example who entered the present long-term extension study and received at least one dose of study intervention (including a partial dose) during the study period.

CC(=O)NCCCC[C@@H]1NC(=O)[C@H](Cc2c[nH]c3c(C)cccc23)NC(=O)[C@H]([C@@H](C)O)NC(=O)[C@H](CC(N)=O)NC(=O)[C@@H](NC(C)=O)C(C)(C)SSC(C)(C)[C@@H](C(=O)N[C@@H](Cc2ccc(OCCN)cc2)C(=O)N[C@@H](Cc2ccc3ccccc3c2)C(=O)NC2(C(=O)N[C@@H](CCC(=O)O)C(=O)N[C@@H](CC(N)=O)C(=O)N[C@@H](Cc3cccnc3)C(=O)N(C)CC(N)=O)CCOCC2)NC1=O [IL-23 receptor antagonist peptide, Ac-[Pen]*-N-T-[W(7-Me)]-[Lys(Ac)]-[Pen]*-Phe[4-(2-aminoethoxy)]-[2-Nal]-[THP]-E-N-[3-Pal]-Sarc-NH2 (*[Pen]-[Pen]* formdisulfidebond)]
Subjects with treatment-emergent AE: Bronchitis (Week 16-56): 0
Subjects with treatment-emergent AE: Meniscus injury (Week 16-56): 0
Subjects with treatment-emergent AE: Sinusitis (Week 16-56): 0
Subjects with treatment-emergent AE: Urinary tract infection (Week 16-56): 0
Subjects with treatment-emergent serious AE: Cardiac disorders (Week 16-56): 0
Subjects with treatment-emergent serious AE: Cerebrovascular accident (Week 16-56): 0
Subjects with treatment-emergent serious AE: Coronary artery disease (Week 16-56): 0
Subjects with treatment-emergent serious AE: Foot deformity (Week 16-56): 0
Subjects with treatment-emergent serious AE: General disorders and administration site conditions (Week 16-56): 0
Subjects with treatment-emergent serious AE: Injury, poisoning and procedural complications (Week 16-56): 0
Subjects with treatment-emergent serious AE: Ligament injury (Week 16-56): 0
Subjects with treatment-emergent serious AE: Neoplasms benign, malignant and unspecified (incl cysts and polyps) (Week 16-56): 0
Subjects with treatment-emergent serious AE: Nervous system disorders (Week 16-56): 0
Subjects with treatment-emergent serious AE: Non-cardiac chest pain (Week 16-56): 0
Subjects with treatment-emergent serious AE: Respiratory, thoracic and mediastinal disorders (Week 16-56): 0
Subjects with treatment-emergent serious AE: Tonsillar hypertrophy (Week 16-56): 0
Subjects with treatment-emergent serious AE: Uterine leiomyoma (Week 16-56): 0
Subjects with treatment-emergent serious AE: Ventricular dysfunction (Week 16-56): 0
Acrochordon: % of subjects (through Week 56): (2.3%)
Acrochordon: number of subjects (through Week 56): 1
Actinic keratosis: number of subjects (through Week 56): 0
Alopecia: number of subjects (through Week 56): 0
Asthenia: number of subjects (through Week 56): 0
Asthma: % of subjects (through Week 56): (2.3%)
Asthma: number of subjects (through Week 56): 1
Atrioventricular block first degree: % of subjects (through Week 56): (2.3%)
Atrioventricular block first degree: number of subjects (through Week 56): 1
Basal cell carcinoma: number of subjects (through Week 56): 0
Blood and lymphatic system disorders: number of subjects (through Week 56): 0
Bronchitis chronic: % of subjects (through Week 56): (2.3%)
Bronchitis chronic: number of subjects (through Week 56): 1
Bundle branch block right: number of subjects (through Week 56): 0
Cardiac disorders: % of subjects (through Week 56): (2.3%)
Cardiac disorders: number of subjects (through Week 56): 1
Chills: % of subjects (through Week 56): (2.3%)
Chills: number of subjects (through Week 56): 1
Cholelithiasis: % of subjects (through Week 56): (2.3%)
Cholelithiasis: number of subjects (through Week 56): 1
Chronic obstructive pulmonary disease: % of subjects (through Week 56): (2.3%)
Chronic obstructive pulmonary disease: number of subjects (through Week 56): 1
Coronary artery disease: number of subjects (through Week 56): 0
Cough: % of subjects (through Week 56): (7.0%)
Cough: number of subjects (through Week 56): 3
Decreased appetite: number of subjects (through Week 56): 0
Depression: % of subjects (through Week 56): (2.3%)
Depression: number of subjects (through Week 56): 1
Dermal cyst: number of subjects (through Week 56): 0
Dermatitis acneiform: number of subjects (through Week 56): 0
Dermatitis contact: % of subjects (through Week 56): (2.3%)
Dermatitis contact: number of subjects (through Week 56): 1
Diabetes mellitus: number of subjects (through Week 56): 0
Diffuse alopecia: number of subjects (through Week 56): 0
Dysuria: number of subjects (through Week 56): 0
Ear and labyrinth disorders: % of subjects (through Week 56): (2.3%)
Ear and labyrinth disorders: number of subjects (through Week 56): 1
Endocrine disorders: number of subjects (through Week 56): 0
Eye disorders: number of subjects (through Week 56): 0
Eyelid skin dryness: number of subjects (through Week 56): 0
Fatigue: % of subjects (through Week 56): (2.3%)
Fatigue: number of subjects (through Week 56): 1
General disorders and administration site conditions: % of subjects (through Week 56): (7.0%)
General disorders and administration site conditions: number of subjects (through Week 56): 3
Goiter: number of subjects (through Week 56): 0
Haemochromatosis: number of subjects (through Week 56): 0
Hand dermatitis: number of subjects (through Week 56): 0
Hematuria: number of subjects (through Week 56): 0
Hepatobiliary disorders: % of subjects (through Week 56): (2.3%)
Hepatobiliary disorders: number of subjects (through Week 56): 1
Hypercholesterolemia: % of subjects (through Week 56): (2.3%)
Hypercholesterolemia: number of subjects (through Week 56): 1
Hyperglycemia: % of subjects (through Week 56): (2.3%)
Hyperglycemia: number of subjects (through Week 56): 1
Hyperlipidemia: number of subjects (through Week 56): 0
Hypertension: % of subjects (through Week 56): (2.3%)
Hypertension: number of subjects (through Week 56): 1
Hypertransaminasemia: number of subjects (through Week 56): 0
Hypertriglyceridemia: number of subjects (through Week 56): 0
Hypoacusis: number of subjects (through Week 56): 0
Immune system disorders: number of subjects (through Week 56): 0
Influenza like illness: number of subjects (through Week 56): 0
Insomnia: % of subjects (through Week 56): (2.3%)
Insomnia: number of subjects (through Week 56): 1
Intertrigo: number of subjects (through Week 56): 0
Ketonuria: number of subjects (through Week 56): 0
Leukocyturia: % of subjects (through Week 56): (2.3%)
Leukocyturia: number of subjects (through Week 56): 1
Leukopenia: number of subjects (through Week 56): 0
Libido decreased: % of subjects (through Week 56): (2.3%)
Libido decreased: number of subjects (through Week 56): 1
Liver disorder: number of subjects (through Week 56): 0
Lymphopenia: number of subjects (through Week 56): 0
Menopause: number of subjects (through Week 56): 0
Metabolism and nutrition disorders: % of subjects (through Week 56): (4.7%)
Metabolism and nutrition disorders: number of subjects (through Week 56): 2
Neoplasms benign, malignant and unspecified (incl cysts and polyps): % of subjects (through Week 56): (2.3%)
Neoplasms benign, malignant and unspecified (incl cysts and polyps): number of subjects (through Week 56): 1
Nephrolithiasis: % of subjects (through Week 56): (2.3%)
Nephrolithiasis: number of subjects (through Week 56): 1
Neutropenia: number of subjects (through Week 56): 0
Night sweats: number of subjects (through Week 56): 0
Non-cardiac chest pain: number of subjects (through Week 56): 0
Ocular cyst: number of subjects (through Week 56): 0
Oedema peripheral: % of subjects (through Week 56): (2.3%)
Oedema peripheral: number of subjects (through Week 56): 1
Oropharyngeal pain: % of subjects (through Week 56): (2.3%)
Oropharyngeal pain: number of subjects (through Week 56): 1
Procedural pain: number of subjects (through Week 56): 0
Productive cough: number of subjects (through Week 56): 0
Proteinuria: number of subjects (through Week 56): 0
Pruritus: % of subjects (through Week 56): (2.3%)
Pruritus: number of subjects (through Week 56): 1
Psoriasis: number of subjects (through Week 56): 0
Psychiatric disorders: % of subjects (through Week 56): (7.0%)
Psychiatric disorders: number of subjects (through Week 56): 3
Pyrexia: number of subjects (through Week 56): 0
Rash pruritic: number of subjects (through Week 56): 0
Renal and urinary disorders: % of subjects (through Week 56): (4.7%)
Renal and urinary disorders: number of subjects (through Week 56): 2
Renal mass: number of subjects (through Week 56): 0
Respiratory, thoracic and mediastinal disorders: % of subjects (through Week 56): (9.3%)
